Test results as given in publication PMC11272598, “RG7774 (Vicasinabin), an orally bioavailable cannabinoid receptor 2 (CB2R) agonist, decreases retinal vascular permeability, leukocyte adhesion, and ocular inflammation in animal models” (Frontiers in Pharmacology, 2024).
Several values for one entry are separate records, joined by “and”; a condition that tells them apart may be missing. Identical values can stand only once.

Experiments:
logD 7.4 = type: physicochemical; conditions: octanol/water, pH 7.4
Text: TABLE 2 Physicochemical and ADMET profile for RG7774.

[1] = Parallel artificial membrane permeability assay (PAMPA); type: physicochemical
Description: A 96-well microtiter plate was filled with aqueous buffer (typically 0.05 M Tris, pH 7.4, or 0.05 M phosphate, pH 6.5) and covered with a filter plate in a sandwich construction. The hydrophobic filter material (Durapore/Millipore; pore size 0.22–0.45 μm) covering the first 48 wells (sample) was impregnated with 1%–20% lecithin dissolved in dodecane, hexadecane, and 1,9-decadiene. The filter cover for the remaining 48 wells (reference) was wetted with 4–5 μL of a 50% (v/v) methanol/buffer solution. The transfer of RG7774 and reference substances from the donor compartment, through the lipid-infused artificial membrane, into the acceptor compartment was initiated by transferring 100–200 μL of a 250 or 500 μM stock solution to filter plates covering the sample and reference wells, respectively. The maximum DMSO content of the stock solutions was 5%. The permeation coefficient (Peff) was determined as previously described by Kansy et al. 1998 [3].

Jurkat cells = test: xCELLigence impedance assay in Jurkat cells; type: cell-based, human; conditions: xCELLigence, 1 h
Description: Background impedance was determined in 96-well RTCA E-plates (Agilent Technologies, Santa Clara, CA, United States) coated with 150 μg/mL fibronectin/H2O (Sigma-Aldrich, St. Louis, MO, United States) and containing 50 μL RPMI 1640 assay medium (Fisher Scientific, Schwerte, Germany) 31870) with 10% fetal calf serum (FCS). Jurkat cells (200,000 cells per well) were seeded in 100 μL of growth medium, allowed to settle for 30 min at RT, and cultured overnight at 37°C and 5% CO2. Dose-response curves were generated by adding increasing concentrations of RG7774 to seeded Jurkat cells and performing impedance measurements (xCelligence RTCA M, Agilent Technologies, Santa Clara, CA, United States) at baseline and 1 h after treatment. Displacement experiments were performed by incubating seeded Jurkat cells with 10 μM SR144528, a CB2R-selective antagonist (Tocris Bioscience, Bristol, United Kingdom) or 10 μM RO6851228 (a CB2R-selective inverse agonist; in-house synthesis) in assay medium overnight at 37°C and 5% CO2. Cells were re-treated with 10 μM SR144528 or […] for 1 h and stimulated with 233 nM RG7774 in assay medium. […] Displacement data are presented as the percentage of the maximal normalized cell index determined after antagonist/inverse agonist treatment relative to the percentage of the normalized cell index at 109 nM RG7774 treatment.

Mouse FAAH = biological target: T1, Mouse FAAH (Mus musculus, UniProt O08914); test: Mouse FAAH assay (brain); type: biochemical; conditions: RG7774 10 µM; read-out: Mean ± SEM % inhibition of control, Mouse FAAH
T1 construct: Mouse brain was homogenized in 50 mM Tris-HCl (pH 7.4); from tissue; host or cells: mouse brain, 1000 g supernatant
T1 sequence (O08914 whole entry): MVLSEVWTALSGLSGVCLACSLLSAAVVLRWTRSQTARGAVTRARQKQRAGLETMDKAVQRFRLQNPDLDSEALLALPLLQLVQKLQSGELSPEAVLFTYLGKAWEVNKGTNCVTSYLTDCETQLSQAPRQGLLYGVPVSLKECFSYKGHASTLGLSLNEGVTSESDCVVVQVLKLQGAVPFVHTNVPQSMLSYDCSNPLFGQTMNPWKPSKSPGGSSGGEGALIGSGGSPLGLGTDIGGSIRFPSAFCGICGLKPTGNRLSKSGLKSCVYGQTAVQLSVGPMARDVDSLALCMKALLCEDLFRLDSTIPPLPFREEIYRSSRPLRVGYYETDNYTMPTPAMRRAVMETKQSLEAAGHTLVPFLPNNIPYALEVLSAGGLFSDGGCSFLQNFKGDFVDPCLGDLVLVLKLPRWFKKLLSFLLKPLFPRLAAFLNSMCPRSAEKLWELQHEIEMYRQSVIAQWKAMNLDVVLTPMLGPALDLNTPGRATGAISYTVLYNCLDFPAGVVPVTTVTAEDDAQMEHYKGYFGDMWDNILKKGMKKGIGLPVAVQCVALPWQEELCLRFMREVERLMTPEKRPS
Description: Mouse brain was homogenized in 50 mM Tris-HCl (pH 7.4) using a glass potter, centrifuged at 1000 g for 10 min, and the pellet was discarded. The supernatant (50 µg) was incubated with [^14C]-AEA (10 µM) (ARC, MO, USA) at 37°C for 15 min (Tris-HCl, pH 9.0) and reactions were stopped with a 2:1 (v/v) mixture of chloroform/methanol. [^14C]-ethanolamine release in the aqueous phase was measured as previously reported. Mouse supernatants (50 µg) were preincubated with RG7774 (10 µM) for 15 min and added directly to the incubation medium. Purified human FAAH (1.7 µg; Cayman Chemical Company, MI, USA) was incubated with [^14C]-AEA (10 µM) (ARC, MO, USA) at 37°C for 15 min (pH 9.0), as previously described. […] for 15 min with 8 different concentrations of RG7774 (0.1-500 µM) and added directly to the incubation medium (250 µL). Control experiments was carried out in the presence of the FAAH inhibitor, URB-597 (100 nM).

CYP2C8 = biological target: T2, CYP2C8 (Homo sapiens, UniProt P10632); test: CYP inhibition assay; type: in vitro ADME; conditions: 2C8, human liver microsomes
T2 construct: pooled human liver microsomes, CYP probe substrate around the reported Km; from tissue; host or cells: pooled human liver microsomes
T2 sequence (P10632 whole entry): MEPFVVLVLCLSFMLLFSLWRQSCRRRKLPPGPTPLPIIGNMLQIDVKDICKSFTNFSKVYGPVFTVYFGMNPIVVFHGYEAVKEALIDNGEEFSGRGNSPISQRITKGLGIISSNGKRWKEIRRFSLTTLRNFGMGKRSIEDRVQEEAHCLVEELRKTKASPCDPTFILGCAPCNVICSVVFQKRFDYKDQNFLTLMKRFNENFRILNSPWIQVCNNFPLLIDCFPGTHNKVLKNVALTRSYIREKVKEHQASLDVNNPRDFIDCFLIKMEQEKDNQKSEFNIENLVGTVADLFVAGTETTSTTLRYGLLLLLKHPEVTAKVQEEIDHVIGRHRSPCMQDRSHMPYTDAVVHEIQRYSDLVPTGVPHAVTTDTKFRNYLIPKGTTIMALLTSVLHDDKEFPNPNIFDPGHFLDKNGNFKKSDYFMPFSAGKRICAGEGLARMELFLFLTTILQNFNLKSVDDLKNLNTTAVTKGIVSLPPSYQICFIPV
Description: (§1) CYP assays were conducted as previously described to determine the risk of drug-drug interactions between test compounds and drugs known to be metabolized via different CYPs. […] Conditions were optimized to achieve the linear metabolic rate for the probe substrate reactions. Samples were analyzed by LC-MS/MS. Assays generate two endpoints: IC50 (μM) and percent inhibition at the highest acceptable test concentration (typically 50 μM; lower if highest concentration data are rejected due to insolubility).

CYP2C9 = biological target: T3, CYP2C9 (Homo sapiens, UniProt P11712); test: CYP inhibition assay; type: in vitro ADME; conditions: 2C9, human liver microsomes
T3 construct: pooled human liver microsomes, CYP probe substrate around the reported Km; from tissue; host or cells: pooled human liver microsomes
T3 sequence (P11712 whole entry): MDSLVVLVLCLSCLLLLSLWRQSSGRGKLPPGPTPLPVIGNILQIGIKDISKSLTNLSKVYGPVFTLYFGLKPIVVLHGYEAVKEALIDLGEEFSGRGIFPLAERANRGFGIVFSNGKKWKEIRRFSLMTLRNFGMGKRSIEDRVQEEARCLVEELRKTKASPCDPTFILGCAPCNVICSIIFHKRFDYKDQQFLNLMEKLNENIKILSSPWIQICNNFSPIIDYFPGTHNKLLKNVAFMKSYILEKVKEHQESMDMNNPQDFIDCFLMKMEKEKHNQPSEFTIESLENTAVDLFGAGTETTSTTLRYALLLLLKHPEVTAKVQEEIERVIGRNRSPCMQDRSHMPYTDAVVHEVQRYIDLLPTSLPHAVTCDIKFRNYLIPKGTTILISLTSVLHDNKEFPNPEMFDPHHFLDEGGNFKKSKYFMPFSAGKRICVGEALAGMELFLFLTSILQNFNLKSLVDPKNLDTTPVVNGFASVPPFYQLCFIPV
Description: as §1

CYP2D6 = biological target: T4, CYP2D6 (Homo sapiens, UniProt P10635); test: CYP inhibition assay; type: in vitro ADME; conditions: 2D6, human liver microsomes
T4 construct: pooled human liver microsomes, CYP probe substrate around the reported Km; from tissue; host or cells: pooled human liver microsomes
T4 sequence (P10635 whole entry): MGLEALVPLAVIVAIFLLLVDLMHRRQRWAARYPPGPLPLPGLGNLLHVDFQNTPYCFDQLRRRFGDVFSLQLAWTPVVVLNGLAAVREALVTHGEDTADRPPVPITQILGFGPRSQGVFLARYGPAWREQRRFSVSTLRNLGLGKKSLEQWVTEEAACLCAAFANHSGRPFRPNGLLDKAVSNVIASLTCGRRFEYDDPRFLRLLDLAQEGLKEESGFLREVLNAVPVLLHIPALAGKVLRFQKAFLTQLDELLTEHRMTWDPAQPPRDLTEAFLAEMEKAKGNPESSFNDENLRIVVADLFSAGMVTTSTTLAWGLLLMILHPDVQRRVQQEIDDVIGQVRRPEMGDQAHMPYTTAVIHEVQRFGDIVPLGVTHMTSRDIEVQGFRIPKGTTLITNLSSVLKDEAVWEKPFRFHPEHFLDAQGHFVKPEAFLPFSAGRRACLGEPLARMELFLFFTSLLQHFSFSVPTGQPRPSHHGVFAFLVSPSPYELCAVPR
Description: as §1

CYP1A2 = biological target: T5, CYP1A2 (Homo sapiens, UniProt P05177); test: CYP inhibition assay; type: in vitro ADME; conditions: 1A2, human liver microsomes
T5 construct: pooled human liver microsomes, CYP probe substrate around the reported Km; from tissue; host or cells: pooled human liver microsomes
T5 sequence (P05177 whole entry): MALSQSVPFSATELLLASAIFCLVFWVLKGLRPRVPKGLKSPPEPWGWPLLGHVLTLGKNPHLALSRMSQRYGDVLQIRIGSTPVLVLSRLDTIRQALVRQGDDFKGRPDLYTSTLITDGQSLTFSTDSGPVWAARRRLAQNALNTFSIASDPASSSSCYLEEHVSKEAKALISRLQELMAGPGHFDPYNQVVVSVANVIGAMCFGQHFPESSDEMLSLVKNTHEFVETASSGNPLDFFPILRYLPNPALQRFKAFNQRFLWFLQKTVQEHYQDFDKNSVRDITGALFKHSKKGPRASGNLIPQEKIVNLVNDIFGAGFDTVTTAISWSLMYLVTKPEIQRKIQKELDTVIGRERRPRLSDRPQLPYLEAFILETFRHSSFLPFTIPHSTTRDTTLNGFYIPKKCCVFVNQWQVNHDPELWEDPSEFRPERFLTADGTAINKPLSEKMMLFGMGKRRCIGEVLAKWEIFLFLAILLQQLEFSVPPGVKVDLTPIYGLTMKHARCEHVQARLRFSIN
Description: as §1

CYP3A4 = biological target: T6, CYP3A4 (Homo sapiens, UniProt P08684); test: CYP inhibition assay; type: in vitro ADME; conditions: 3A4, human liver microsomes
T6 construct: pooled human liver microsomes, CYP probe substrate around the reported Km; from tissue; host or cells: pooled human liver microsomes
T6 sequence (P08684 whole entry): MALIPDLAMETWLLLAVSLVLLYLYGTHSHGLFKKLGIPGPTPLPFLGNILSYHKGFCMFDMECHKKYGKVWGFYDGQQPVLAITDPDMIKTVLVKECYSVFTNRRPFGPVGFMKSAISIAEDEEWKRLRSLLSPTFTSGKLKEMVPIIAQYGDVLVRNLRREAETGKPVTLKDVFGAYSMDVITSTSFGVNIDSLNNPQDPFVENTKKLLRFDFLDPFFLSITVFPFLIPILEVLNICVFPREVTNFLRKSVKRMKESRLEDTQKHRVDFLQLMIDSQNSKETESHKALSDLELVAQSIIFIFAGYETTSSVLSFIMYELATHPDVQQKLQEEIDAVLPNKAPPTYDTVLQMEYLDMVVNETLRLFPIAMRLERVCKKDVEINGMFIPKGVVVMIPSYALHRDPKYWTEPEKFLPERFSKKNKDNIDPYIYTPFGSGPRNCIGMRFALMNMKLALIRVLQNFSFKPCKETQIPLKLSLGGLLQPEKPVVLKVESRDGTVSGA
Description: as §1

CYP2C19 = biological target: T7, CYP2C19 (Homo sapiens, UniProt P33261); test: CYP inhibition assay; type: in vitro ADME; conditions: 2C19, human liver microsomes
T7 construct: pooled human liver microsomes, CYP probe substrate around the reported Km; from tissue; host or cells: pooled human liver microsomes
T7 sequence (P33261 whole entry): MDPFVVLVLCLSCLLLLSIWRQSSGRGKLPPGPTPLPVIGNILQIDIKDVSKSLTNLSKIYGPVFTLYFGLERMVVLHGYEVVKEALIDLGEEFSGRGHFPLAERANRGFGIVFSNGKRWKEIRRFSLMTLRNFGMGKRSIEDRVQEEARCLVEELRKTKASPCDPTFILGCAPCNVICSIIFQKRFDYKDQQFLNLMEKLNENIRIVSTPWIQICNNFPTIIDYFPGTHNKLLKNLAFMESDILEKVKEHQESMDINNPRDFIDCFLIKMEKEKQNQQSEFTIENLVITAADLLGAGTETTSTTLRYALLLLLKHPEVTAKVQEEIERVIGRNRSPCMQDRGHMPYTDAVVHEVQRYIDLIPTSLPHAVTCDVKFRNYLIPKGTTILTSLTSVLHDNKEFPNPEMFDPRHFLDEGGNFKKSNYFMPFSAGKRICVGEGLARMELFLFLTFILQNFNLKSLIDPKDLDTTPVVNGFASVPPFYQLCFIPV
Description: as §1

[2] = Aqueous stability assay (ASTA); type: physicochemical; conditions: 37 °C, 2 h
Description: Aqueous solutions of RG7774 were prepared at 5 different pHs (pH 1-10) from DMSO stock solutions, added to incubation plates and shaken for 10 min at 37 °C. Solutions were transferred to a filter plate (Millipore MSGVN2250, pore size 0.22 μm) and filtered into V-bottom plates (ABGene, AB-0800) prior to heat-sealing. The procedure was repeated, increasing the 37 °C incubation time by 2 h. Samples were analyzed by HPLC at 0 and 2 h. A compound was classified as unstable if < 90% of the initial concentration was detected after 2 h.

Cn1nnnc1Cn1nnc2c(N3CC[C@H](O)C3)nc(C(C)(C)C)nc21 [RG7774, (S)-1-(5-tert-butyl-3-[(1-methyl-1H-tetrazol-5-yl)methyl]-3H-[1,2,3]triazolo[4,5-d]pyrimidin-7-yl)pyrrolidin-3-ol]
logD (logD 7.4): 2.2
PAMPA P eff [1]: 9.7 10^−6 cm s^−1
PAMPA acceptor compartment [1]: 23%
PAMPA donor compartment [1]: 59%
PAMPA membrane [1]: 18%
EC50, cell index relative to maximal cell index of RG7774 at 233 nM (Jurkat cells): 0.0108 µM and 0.0108 ± 0.0042 µM
inhibition at 10 µM (Mouse FAAH): 6 ± 8.7%
IC50 (CYP2C8): > 50 µM
IC50 (CYP2C9): 29 µM
IC50 (CYP2D6): > 50 µM
IC50 (CYP1A2): > 50 µM
IC50 (CYP3A4): > 50 µM
IC50 (CYP2C19): > 50 µM
Chemical stability in aqueous media at pH 1–10 [2]: stable
